From PubChem BioAssay (NCI) come the findings set out here.

Test systems include PC-3 prostate; HT29 colon; MDA-MB-435; MDA-MB-231 breast; MOLT-4 leukemia; RXF 393 renal; NCI-H460 lung; U251 CNS; IGROV1 ovarian; UACC-257 melanoma.
What all share (experiment): NCI tumour cell line growth inhibition, 48 h

Values joined by “and” are separate entries in the source; they are usually repeats but may differ in a detail not shown here. Equal values may be shown once.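 Test compounds were applied to cells in 96-well plates for 48 hours at 5 doses. The concentration for 50% growth inhibition is given as GI50. The concentration for full growth arrest is given as TGI.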 Where a SMILES comes first, the peptide text is derived from it. [ ]: non-standard residue; d: D form. The star is where a group is joined. X28 = COC1=CC(=O)N(C(=O)[C@@H](O*)C(C)C)[C@H]1Cc1ccccc1; NMeL = CN[C@@H](CC(C)C)C(=O)O; Hexanoyl = CCCCCC(=O)*

Turning to `CCCCc1cc2c(cc1O)CCC1C2CC[C@@]2(C)C1CC[C@@H]2O` (stereo partly specified), the TGI with PC-3 prostate was determined as 35.3 µM; in the test with HT29 colon, 50.3 µM; in the test on MDA-MB-435, 36.5 µM; in the test on MDA-MB-231 breast it was 62.1 µM; in the test on MOLT-4 leukemia it was 28.2 µM; with RXF 393 renal, 22.2 µM. The TGI came to 63.5 µM in the test with NCI-H460 lung, 64.7 µM in the test with U251 CNS, 49.9 µM in the test with IGROV1 ovarian and 35.9 µM in the test on UACC-257 melanoma.

In the case of `CC1(c2cccc(C3CCC4(C=CC3=O)OCCO4)c2)OCCO1` (stereo unspecified), the TGI with PC-3 prostate was determined as 31.1 µM; in the test on HT29 colon it was 25.8 µM; with MDA-MB-435, 26.1 µM; in the test with MDA-MB-231 breast, 26 µM; in the test on MOLT-4 leukemia, 12 µM; with RXF 393 renal, 11.5 µM. Also, the TGI in the test with NCI-H460 lung amounted to 30.6 µM; with U251 CNS it was 33.8 µM; with IGROV1 ovarian, 32.7 µM; in the test with UACC-257 melanoma it was 21.5 µM.

In the case of `Cc1ccc(S(=O)(=O)OC2CN3CCC2CC3)cc1` (stereo unspecified), the TGI with PC-3 prostate, in the test on HT29 colon, in the test on MDA-MB-435, in the test on MDA-MB-231 breast, in the test on MOLT-4 leukemia and in the test on RXF 393 renal was greater than 100 µM in each case. The TGI in the test on NCI-H460 lung, in the test with U251 CNS, in the test with IGROV1 ovarian and with UACC-257 melanoma was greater than 100 µM throughout.

As to `CCCCCC(=O)N[C@H](C(=O)N[C@H](C(=O)N(C)[C@@H](CC(C)C)C(=O)N1CCC[C@H]1C(=O)N1CCC[C@H]1C(=O)O[C@H](C(=O)N1C(=O)C=C(OC)[C@@H]1Cc1ccccc1)C(C)C)C(C)C)C(C)C` (Hexanoyl-VV[NMeL]PP-X28), the TGI is greater than 80.5 µM in the test on PC-3 prostate; greater than 100 µM in the test with HT29 colon; greater than 100 µM with MDA-MB-435; greater than 100 µM in the test on MDA-MB-231 breast; greater than 100 µM in the test with MOLT-4 leukemia; 90.3 µM with RXF 393 renal. For the same compound, the TGI in the test on NCI-H460 lung, in the test on U251 CNS, in the test on IGROV1 ovarian and in the test with UACC-257 melanoma was greater than 100 µM each time.

Consider `NC12c3c4cccc3Oc3cccc(c31)Oc1cccc(c12)O4`, for which the TGI with PC-3 prostate, in the test with HT29 colon, in the test with MDA-MB-435, in the test with MDA-MB-231 breast, in the test on MOLT-4 leukemia and in the test with RXF 393 renal was greater than 50 µM each time. Besides, the TGI with NCI-H460 lung, in the test with U251 CNS, with IGROV1 ovarian and in the test with UACC-257 melanoma was greater than 50 µM in each case.

Take `C(=N\NC1=NCCCN1)/c1ccc(-c2cn3cc(/C=N/NC4=NCCCN4)ccc3n2)cc1`: the TGI was greater than 57.3 µM in the test on PC-3 prostate; greater than 71.7 µM with HT29 colon; greater than 100 µM with MDA-MB-435; greater than 100 µM with MDA-MB-231 breast; 11.8 µM with MOLT-4 leukemia; greater than 100 µM in the test with RXF 393 renal. Moreover, the TGI with NCI-H460 lung, in the test with U251 CNS, in the test with IGROV1 ovarian and in the test on UACC-257 melanoma was greater than 100 µM each time.

On to `CCCCCCc1cc(C=O)sc1-c1ccc(-c2sc(-c3ccc(-c4ccc(-c5cc(CCCCCC)c(-c6ccc(-c7sc(C=O)cc7CCCCCC)s6)s5)s4)s3)cc2CCCCCC)s1`, for which the TGI in the test on PC-3 prostate, with HT29 colon, with MDA-MB-435, in the test on MDA-MB-231 breast, in the test on MOLT-4 leukemia and in the test on RXF 393 renal was greater than 100 µM each time. Also, the TGI with NCI-H460 lung, in the test with U251 CNS, in the test on IGROV1 ovarian and in the test with UACC-257 melanoma was greater than 100 µM each time.

For `Cc1nn(-c2ccccc2)c(C)c1/C=N/NC(=O)c1sc(=S)n(-c2ccc(Cl)cc2)c1N`, the TGI with PC-3 prostate was greater than 100 µM; in the test with HT29 colon it was greater than 100 µM; in the test with MDA-MB-435, greater than 100 µM; with MDA-MB-231 breast it was greater than 100 µM; in the test on MOLT-4 leukemia, greater than 100 µM; in the test with RXF 393 renal, 6 µM. In addition, the TGI in the test with NCI-H460 lung was 95.1 µM; with U251 CNS, greater than 100 µM; with IGROV1 ovarian, 4.26 µM; in the test with UACC-257 melanoma it was greater than 100 µM.

For `CC(C)(C)[Si](C)(C)OCC1OC(n2ccc(=O)[nH]c2=O)C(O[Si](C)(C)C(C)(C)C)/C1=N/O` (stereo unspecified), the TGI in the test on PC-3 prostate came out at 13.7 µM; in the test on HT29 colon, 9.82 µM; in the test on MDA-MB-435 it was 9.95 µM; in the test on MDA-MB-231 breast it was 54.6 µM; in the test with MOLT-4 leukemia, 6.57 µM; with RXF 393 renal, 23.3 µM. Moreover, the TGI in the test on NCI-H460 lung was 12.5 µM; in the test on U251 CNS it was 23.4 µM; in the test with IGROV1 ovarian, 15.6 µM; in the test on UACC-257 melanoma it was 16.7 µM.

As to `Cc1cn2c(/C=C3/C(=O)Nc4ccccc43)c(-c3ccccc3)nc2s1`, the TGI was greater than 100 µM in the test with PC-3 prostate; greater than 100 µM with HT29 colon; greater than 100 µM with MDA-MB-435; 57.7 µM in the test on MDA-MB-231 breast; greater than 100 µM in the test on MOLT-4 leukemia; 55.2 µM in the test on RXF 393 renal. Moreover, the TGI in the test with NCI-H460 lung, in the test with U251 CNS, with IGROV1 ovarian and in the test with UACC-257 melanoma was greater than 100 µM each time.

On to `C#CCNC(Cc1ccccc1)C(=O)O` (stereo unspecified), for which the TGI in the test on PC-3 prostate, in the test on HT29 colon, in the test on MDA-MB-435, in the test on MDA-MB-231 breast, in the test with MOLT-4 leukemia and in the test on RXF 393 renal was greater than 100 µM each time. Further, the TGI in the test on NCI-H460 lung, with U251 CNS, in the test with IGROV1 ovarian and in the test with UACC-257 melanoma was greater than 100 µM each time.

Turning to `COC(=O)c1nc2c(C)c(O)c(O)c([C@H](C)CCC=C(C)C)c2o1`, the TGI is 93.5 µM in the test with PC-3 prostate; 37 µM with HT29 colon; greater than 100 µM with MDA-MB-435; greater than 100 µM in the test with MDA-MB-231 breast; greater than 100 µM in the test on MOLT-4 leukemia; 39.6 µM with RXF 393 renal. In addition, the TGI in the test on NCI-H460 lung is greater than 100 µM; in the test with U251 CNS it was greater than 100 µM; in the test with IGROV1 ovarian, 48.1 µM; in the test on UACC-257 melanoma, 78 µM.

On to `CC(=O)OCC1OC(n2c(-c3ccccc3)c(N=Nc3ccc(Cl)cc3)c(C)c(C#N)c2=S)C(OC(C)=O)C(OC(C)=O)C1OC(C)=O` (stereo unspecified), for which the TGI is 37.4 µM and > 100 µM with PC-3 prostate; 49.1 µM and > 100 µM in the test with HT29 colon; 41.1 µM and > 100 µM with MDA-MB-435; greater than 100 µM in the test on MDA-MB-231 breast; 21.5 µM and > 100 µM with MOLT-4 leukemia; 35.6 µM and 48.8 µM in the test on RXF 393 renal. The TGI with NCI-H460 lung is greater than 100 µM; in the test with U251 CNS it was 15.6 µM and 74.4 µM; in the test with IGROV1 ovarian it was greater than 100 µM; with UACC-257 melanoma, greater than 100 µM. In addition, the GI50 with HT29 colon was 20.1 µM and 87.7 µM; in the test on MDA-MB-231 breast, 20.3 µM and 45.2 µM; in the test with NCI-H460 lung, 5.26 µM and 51.2 µM; in the test with U251 CNS, 3.79 µM and 24 µM; in the test on IGROV1 ovarian, 7.17 µM and 29.9 µM; in the test on UACC-257 melanoma it was 16.5 µM and > 100 µM.

Regarding `CC(=O)C1=CC=C/C1=N\Nc1ccccc1`, the TGI in the test on PC-3 prostate turned out to be 18.7 µM; in the test with HT29 colon it was 11.5 µM; in the test with MDA-MB-435 it was 27.4 µM; in the test with MDA-MB-231 breast it was 24.2 µM; with MOLT-4 leukemia, 29.6 µM; in the test on RXF 393 renal, 34.5 µM. For the same compound, the TGI amounted to 38.7 µM with NCI-H460 lung, 9.36 µM with U251 CNS, 21.3 µM with IGROV1 ovarian and 33.5 µM in the test on UACC-257 melanoma.

For the compound `COc1ccc(N=NN2CCCC2)cc1`, the TGI is greater than 100 µM in the test on PC-3 prostate; greater than 100 µM in the test on HT29 colon; greater than 100 µM with MDA-MB-435; 47.7 µM in the test on MDA-MB-231 breast; 60.6 µM in the test on MOLT-4 leukemia; 64.1 µM in the test with RXF 393 renal. In addition, the TGI is greater than 100 µM in the test on NCI-H460 lung, greater than 100 µM with U251 CNS, 41 µM in the test on IGROV1 ovarian and greater than 100 µM with UACC-257 melanoma.

For `CCOC(=O)c1cc(-c2ccc(OC)c(OC)c2)cn1C`, the TGI in the test on PC-3 prostate, in the test on HT29 colon, with MDA-MB-435, in the test with MDA-MB-231 breast, in the test with MOLT-4 leukemia and in the test on RXF 393 renal was greater than 10 µM each time. For the same compound, the TGI in the test on NCI-H460 lung, in the test on U251 CNS, in the test with IGROV1 ovarian and with UACC-257 melanoma was greater than 10 µM in each case.

Regarding `CCCCN(CCCC)CC(=O)c1ccc2cc(Cl)c3ccccc3c2c1`, the TGI was greater than 100 µM in the test with PC-3 prostate; 46 µM in the test with HT29 colon; greater than 100 µM in the test on MDA-MB-435; greater than 100 µM in the test on MDA-MB-231 breast; greater than 100 µM with MOLT-4 leukemia; 46.2 µM in the test on RXF 393 renal. In addition, the TGI in the test with NCI-H460 lung was determined as 52.1 µM; with U251 CNS, 68.8 µM; in the test with IGROV1 ovarian, 62 µM; with UACC-257 melanoma, 98.9 µM.

For `COc1ccccc1NC(=S)N/N=C(/c1ccccc1)c1ccccn1`, the TGI in the test on PC-3 prostate turned out to be 16.7 µM; with HT29 colon, 21 µM; in the test with MDA-MB-435, 20 µM; with MDA-MB-231 breast, 11.4 µM; in the test on MOLT-4 leukemia it was 0.403 µM; in the test with RXF 393 renal, 13.9 µM. The TGI in the test on NCI-H460 lung is 13.3 µM; with U251 CNS, 14.9 µM; with IGROV1 ovarian it was 17.6 µM; in the test on UACC-257 melanoma, 1.13 µM.

For the compound `c1ccc(/C(=N/Nc2cnccn2)c2ncccn2)cc1`, the TGI with PC-3 prostate, with HT29 colon, in the test with MDA-MB-435, in the test on MDA-MB-231 breast, with MOLT-4 leukemia and in the test with RXF 393 renal was greater than 100 µM each time. Moreover, the TGI with NCI-H460 lung, with U251 CNS, in the test with IGROV1 ovarian and in the test on UACC-257 melanoma was greater than 100 µM in each case.
